The source of these data is patent US12122763B2, “Substituted piperidines for androgen receptor degradation” (UBIX THERAPEUTICS, INC., priority 2020, dated 2024).

For experiment [1], the target named is T1, Androgen Receptor (AR) protein (Homo sapiens, UniProt P10275, T878A).
T1 construct: endogenous in cells; host or cells: LNCaP
Briefly: Androgen Receptor (AR) protein degradation assay in LNCaP cells, western blotting. The format is cell-based. The settings on record: 20 h; for inhibition at 0.01 µM: 0.01 μM compound; for inhibition at 0.1 µM: 0.1 μM compound; for inhibition at 1 µM: 1 μM compound. In outline: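 AR protein level was detected by western blot (ECL) against GAPDH or β-actin controls, with 8 μg lysate protein loaded per lane after BCA quantification. Lysates came from LNCaP cells exposed to test compound for 20 h, following 3 days of growth in RPMI/10% FBS.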

Experiment [2] concerns the target T877A AR mutant (Homo sapiens, UniProt P10275, T878A). Briefly: Degradation of AR mutant T877A. It is filed as cell-based. The following applies: at a concentration of 100 nM. An excerpt: On the other hand, the compounds of the present invention have excellent degradation activity against AR mutants (T877A, M896V, F876L, H874Y, L702H, W741C, etc.). Since resistance to existing anti-androgen receptor drugs can be caused by AR mutation, the excellent AR mutant-degrading activity of the compounds of the present invention can help overcome resistance to existing drugs.

As usually defined, the inhibition is the change of the read-out against control, counted positive when it falls.

T1 sequence (P10275 whole entry T878A): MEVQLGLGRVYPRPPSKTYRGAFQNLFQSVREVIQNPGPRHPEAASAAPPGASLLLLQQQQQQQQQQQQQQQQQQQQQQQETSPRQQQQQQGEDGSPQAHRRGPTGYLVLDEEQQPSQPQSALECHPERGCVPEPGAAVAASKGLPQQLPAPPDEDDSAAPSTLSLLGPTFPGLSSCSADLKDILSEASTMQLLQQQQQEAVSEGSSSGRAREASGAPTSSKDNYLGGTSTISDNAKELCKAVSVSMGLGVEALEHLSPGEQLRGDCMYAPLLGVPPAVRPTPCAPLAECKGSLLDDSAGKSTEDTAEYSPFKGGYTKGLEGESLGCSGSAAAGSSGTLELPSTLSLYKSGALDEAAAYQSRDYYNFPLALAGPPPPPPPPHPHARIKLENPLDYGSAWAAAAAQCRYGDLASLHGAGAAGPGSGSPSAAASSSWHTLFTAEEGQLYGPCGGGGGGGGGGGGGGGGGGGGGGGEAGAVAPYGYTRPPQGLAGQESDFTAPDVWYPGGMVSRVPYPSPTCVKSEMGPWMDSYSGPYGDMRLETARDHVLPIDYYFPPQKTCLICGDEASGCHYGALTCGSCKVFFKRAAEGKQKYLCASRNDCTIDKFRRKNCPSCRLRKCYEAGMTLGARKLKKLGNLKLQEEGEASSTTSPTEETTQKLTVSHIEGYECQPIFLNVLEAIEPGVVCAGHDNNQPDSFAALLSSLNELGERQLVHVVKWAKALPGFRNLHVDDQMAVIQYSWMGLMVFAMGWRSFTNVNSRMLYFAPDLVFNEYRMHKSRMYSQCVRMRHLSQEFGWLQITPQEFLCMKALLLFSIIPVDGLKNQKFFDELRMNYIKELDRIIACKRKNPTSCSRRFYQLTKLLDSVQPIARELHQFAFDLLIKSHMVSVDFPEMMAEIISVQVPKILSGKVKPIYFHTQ
T1 sequence (Q96SW2 whole entry partner): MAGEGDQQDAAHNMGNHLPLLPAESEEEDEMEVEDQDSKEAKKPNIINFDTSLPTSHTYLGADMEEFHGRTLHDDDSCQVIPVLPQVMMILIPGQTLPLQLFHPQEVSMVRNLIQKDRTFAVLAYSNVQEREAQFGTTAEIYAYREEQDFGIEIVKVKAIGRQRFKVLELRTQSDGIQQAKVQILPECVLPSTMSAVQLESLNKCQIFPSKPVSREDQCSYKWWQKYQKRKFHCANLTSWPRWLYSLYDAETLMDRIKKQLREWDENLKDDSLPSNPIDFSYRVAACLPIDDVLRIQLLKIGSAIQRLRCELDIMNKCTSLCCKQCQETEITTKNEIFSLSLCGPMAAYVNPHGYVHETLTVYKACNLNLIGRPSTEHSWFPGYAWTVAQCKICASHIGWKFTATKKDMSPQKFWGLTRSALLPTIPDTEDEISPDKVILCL
Chain of T877A AR mutant (P10275 whole entry T878A): as the sequence (P10275 whole entry T878A) above
Chain of T877A AR mutant (Q96SW2 whole entry partner): as the sequence (Q96SW2 whole entry partner) above

As to `N#Cc1ccc(N2CCC(C(=O)Nc3ccc(N4CCC(CN5CC6(CCN(c7ccc8c(c7)C(=O)N(C7CCC(=O)NC7=O)C8=O)CC6)C5)CC4)cn3)CC2)cc1C(F)(F)F` (centres unmarked) [Example 49, 1-(4-cyano-3-(trifluoromethyl)phenyl)-N-(5-(4-((7-(2-(2,6-dioxopiperidin-3-yl)-1,3-dioxoisoindolin-5-yl)-2,7-diazaspiro[3.5]nonan-2-yl)methyl)piperidin-1-yl)pyridin-2-yl)piperidine-4-carboxamide], in experiment [1], the inhibition at 0.01 µM came to 68%, the inhibition at 0.1 µM came out at 98% and the inhibition at 1 µM worked out at 99%. In experiment [1] (10 μM compound), the inhibition at 10 µM was determined as 99%. Moreover, the “degradation activity for the T877A AR mutant” value in experiment [2] was 46%.
Turning to `N#Cc1ccc(N2CCC(C(=O)Nc3ccc(CCN4CCC(CN5CCN(c6cc7c(cc6F)C(=O)N(C6CCC(=O)NC6=O)C7=O)CC5)CC4)cn3)CC2)cc1C(F)(F)F` (centres unmarked) [Example 189, 1-(4-cyano-3-(trifluoromethyl)phenyl)-N-(5-(2-(4-((4-(2-(2,6-dioxopiperidin-3-yl)-6-fluoro-1,3-dioxoisoindolin-5-yl)piperazin-1-yl)methyl)piperidin-1-yl)ethyl)pyridin-2-yl)piperidine-4-carboxamide], in experiment [1], the inhibition at 0.01 µM stood at 8% and the inhibition at 0.1 µM was determined as 79%.
On the same counts, the results for `N#Cc1ccc(N2CCC(C(=O)Nc3ccc(N4CC(CN5CCC(CN6CCN(c7ccc8c(c7)C(=O)N(C7CCC(=O)NC7=O)C8=O)CC6)CC5)C4)cn3)CC2)cc1C(F)(F)F` (centres unmarked) [Example 190, 1-(4-cyano-3-(trifluoromethyl)phenyl)-N-(5-(3-((4-((4-(2-(2,6-dioxopiperidin-3-yl)-1,3-dioxoisoindolin-5-yl)piperazin-1-yl)methyl)piperidin-1-yl)methyl)azetidin-1-yl)pyridin-2-yl)piperidine-4-carboxamide] are -11% and 61%.
As to `N#Cc1ccc(N2CCC(C(=O)Nc3ccc(N4CC(CN5CCC(CN6CCN(c7cc8c(cc7F)C(=O)N(C7CCC(=O)NC7=O)C8=O)CC6)CC5)C4)cn3)CC2)cc1C(F)(F)F` (centres unmarked) [Example 191, 1-(4-cyano-3-(trifluoromethyl)phenyl)-N-(5-(3-((4-((4-(2-(2,6-dioxopiperidin-3-yl)-6-fluoro-1,3-dioxoisoindolin-5-yl)piperazin-1-yl)methyl)piperidin-1-yl)methyl)azetidin-1-yl)pyridin-2-yl)piperidine-4-carboxamide], in experiment [1], the inhibition at 0.01 µM turned out to be 3% and the inhibition at 0.1 µM is 84%.
`N#Cc1ccc(N2CCC(C(=O)Nc3ccc(N4CCC(CCN5CCN(c6cc7c(cc6F)C(=O)N(C6CCC(=O)NC6=O)C7=O)CC5)CC4)cn3)CC2)cc1C(F)(F)F` (centres unmarked) [Example 192, 1-(4-cyano-3-(trifluoromethyl)phenyl)-N-(5-(4-(2-(4-(2-(2,6-dioxopiperidin-3-yl)-6-fluoro-1,3-dioxoisoindolin-5-yl)piperazin-1-yl)ethyl)piperidin-1-yl)pyridin-2-yl)piperidine-4-carboxamide]: in experiment [1], the inhibition at 0.01 µM is -11%, the inhibition at 0.1 µM stood at 15% and the inhibition at 1 µM worked out at 67%.
